US5545629A, “5-ethoxy-2'-deoxyuridines” (Montefiore Medical Center, priority 1994, dated 1996)
Where two headings read alike, the source gives them in different places. Values belong to the compound of their own block, whether it stands above or below them.

What was measured:
HT-29 cells = experiment: growth inhibition of HT-29 cells, 6 days, sulforhodamine B staining; type: cell-based, human; settings: for IC50: HT-29, 6 days, sulforhodamine B
Method: The growth inhibitory effect of 5-ethoxy-2'-deoxyuridine was compared with other analogous 5-substituted-2'-deoxyuridine compounds by determining the IC50 of each compound in an assay which measured the growth inhibition of HT-29 cells. The HT-29 cells were placed in 96 well plates (2×10^4 cells per well) in RPMI 1640 with 10% added fetal bovine serum. After allowing the cells to attach overnight, several concentrations of the test compounds were added. After 6 days, cell numbers were quantitated by staining with sulforhodamine B (Skehan et al., J. Natl. Canc. Inst, 82, 1107-1112, 1990).

[1] = system: HT-29 human carcinoma cells; experiment: in vitro clonogenic assay (cloning efficiency) with HT-29 cells, 72 h drug exposure; type: cell-based; settings: for IC50: read-out: IC50 for 5-fluorouracil (50% reduction of cloning efficiency)
Method: For assessment of the antitumor activity of 5-ethoxy-2'-deoxyuridine, an in vitro clonogenic assay was used. The assay was based on a modification of procedures first described by Puck and Marcus (Proc. Natl. Acad. Sci. (USA) 41:432-437, 1955). […] 3:225-231, 1991; A. F. Sobrero et al., J. Natl. Cancer Inst. 85:1937-1944, 1993).
HT-29 human carcinoma cells (ATCC No. HTB-38) were maintained in RPMI 1640 with 10% v/v fetal bovine serum (GIBCO) in a humidified, 5% CO2 atmosphere at 37° C. Cells were plated in 24 well plates (150 cells per well) in RPMI 1640 medium with 10% v/v dialyzed fetal bovine serum. After allowing cell attachment to proceed overnight, combinations of interferon-α (500 units/ml; Roferon-A, Roche Labs.), 5-ethoxy-2'-deoxyuridine (150 μM), in the presence of increasing concentrations of 5-fluorouracil (as specified in the Table) were added. The various agents were diluted in phosphate-buffered saline, and control wells received vehicle alone. After 72 hours, drug containing medium was removed and replaced with RPMI 1640 with 10% v/v fetal bovine serum. Cell colonies were allowed to grow for an additional 7-10 days, at which point they were stained and counted. […] Data are means of at least 3 determinations. The IC50 values for 5-fluorouracil were calculated graphically by determining the concentration of 5-fluorouracil that reduced cloning efficiency by 50% from the cloning efficiency value measured in the absence of 5-fluorouracil.

Compound: O=c1[nH]cc(F)c(=O)[nH]1 [5-FU, 5-fluorouracil]
Cloning Efficiency (% of control) ([1]; 5-FU 0.025 μM with 5-ETH 150 μM + IFN 500 u/ml, 4320 min): 89 % of control
Cloning Efficiency (% of control) ([1]; 5-FU 0.05 μM with 5-ETH 150 μM + IFN 500 u/ml, 4320 min): 81 % of control
Cloning Efficiency (% of control) ([1]; 5-FU 0.05 μM with 5-ETH 150 μM, 4320 min): 81 % of control
Cloning Efficiency (% of control) ([1]; 5-FU 0.10 μM with 5-ETH 150 μM + IFN 500 u/ml, 4320 min): 38 % of control
Cloning Efficiency (% of control) ([1]; 5-FU 0.10 μM with 5-ETH 150 μM, 4320 min): 80 % of control
Cloning Efficiency (% of control) ([1]; 5-FU 0.15 μM with 5-ETH 150 μM + IFN 500 u/ml, 4320 min): 9 % of control
Cloning Efficiency (% of control) ([1]; 5-FU 0.25 μM with 5-ETH 150 μM + IFN 500 u/ml, 4320 min): 0 % of control
Cloning Efficiency (% of control) ([1]; 5-FU 0.25 μM with 5-ETH 150 μM, 4320 min): 60 % of control
Cloning Efficiency (% of control) ([1]; 5-FU 0.25 μM with IFN 500 u/ml, 4320 min): 97 % of control
Cloning Efficiency (% of control) ([1]; 5-FU 0.50 μM with 5-ETH 150 μM, 4320 min): 38 % of control
Cloning Efficiency (% of control) ([1]; 5-FU 0.50 μM with IFN 500 u/ml, 4320 min): 83 % of control
Cloning Efficiency (% of control) ([1]; 5-FU 1.0 μM with 5-ETH 150 μM, 4320 min): 13 % of control
Cloning Efficiency (% of control) ([1]; 5-FU 1.0 μM with IFN 500 u/ml, 4320 min): 56 % of control
Cloning Efficiency (% of control) ([1]; 5-FU 1.5 μM with 5-ETH 150 μM, 4320 min): 4 % of control
Cloning Efficiency (% of control) ([1]; 5-FU 1.5 μM with IFN 500 u/ml, 4320 min): 18 % of control
Cloning Efficiency (% of control) ([1]; 5-FU 2.0 μM with IFN 500 u/ml, 4320 min): 8 % of control
Cloning Efficiency (% of control) ([1]; 5-FU 3.0 μM with IFN 500 u/ml): 1 % of control
IC50 ([1]; Homo sapiens, HT-29, 72 h, 5-FU alone (CONT, PBS)): 2 µM
IC50 ([1]; Homo sapiens, HT-29, 72 h, 5-FU with 5-ETH 150 μM + IFN 500 u/ml): 0.08 µM
IC50 ([1]; Homo sapiens, HT-29, 72 h, 5-FU with 5-ETH 150 μM): 0.35 µM
IC50 ([1]; Homo sapiens, HT-29, 72 h, 5-FU with IFN 500 u/ml): 1.1 µM
activity at 0.25 µM ([1]; Homo sapiens, HT-29, 72 h, 5-FU 0.25 μM alone (CONT, PBS), read-out: Cloning Efficiency (% of control)): 104%
activity at 0.5 µM ([1]; Homo sapiens, HT-29, 72 h, 5-FU 0.50 μM alone (CONT, PBS), read-out: Cloning Efficiency (% of control)): 93%
activity at 1 µM ([1]; Homo sapiens, HT-29, 72 h, 5-FU 1.0 μM alone (CONT, PBS), read-out: Cloning Efficiency (% of control)): 87%
activity at 1.5 µM ([1]; Homo sapiens, HT-29, 72 h, 5-FU 1.5 μM alone (CONT, PBS), read-out: Cloning Efficiency (% of control)): 60%
activity at 2 µM ([1]; Homo sapiens, HT-29, 72 h, 5-FU 2.0 μM alone (CONT, PBS), read-out: Cloning Efficiency (% of control)): 55%
activity at 3 µM ([1]; Homo sapiens, HT-29, 72 h, 5-FU 3.0 μM alone (CONT, PBS), read-out: Cloning Efficiency (% of control)): 27%
activity at 4 µM ([1]; Homo sapiens, HT-29, 72 h, 5-FU 4.0 μM alone (CONT, PBS), read-out: Cloning Efficiency (% of control)): 5%

Compound: CCOc1cn([C@H]2C[C@H](O)[C@@H](CO)O2)c(=O)[nH]c1=O [5-ethoxy-2'-deoxyuridine]
toxicity relative to the ethyl analog (HT-29 cells; HT-29 cytotoxicity, fraction of the toxicity of the ethyl analog): about 1/300
toxicity relative to the methyloxy analog (HT-29 cells; HT-29 cytotoxicity, fraction of the toxicity of the methyloxy analog): about 1/27
toxicity relative to the propyloxy analog (HT-29 cells; HT-29 cytotoxicity, fraction of the toxicity of the propyloxy analog): about 1/2
IC50 (HT-29 cells; Homo sapiens, 144 h): 750 µM
toxicity compared with many other prior art 5-substituted-2'-deoxyuridines that have been tested (HT-29 cells; statement in words): less toxic
activity at 150 µM ([1]; Homo sapiens, HT-29, 72 h, 5-ETH 150 μM alone, no 5-FU (0), read-out: Cloning Efficiency (% of control)): 89%

Compound: CCc1cn([C@H]2C[C@H](O)[C@@H](CO)O2)c(=O)[nH]c1=O [5-ethyl-2'-deoxyuridine]
IC50 (HT-29 cells; Homo sapiens, 144 h): 2.5 µM

The next lines start with the values.

IC50 (HT-29 cells): > 3000 µM
Compound: 5-propynyloxy-2'-deoxyuridine

IC50 (HT-29 cells; Homo sapiens, 144 h): 28 µM
Compound: COc1cn([C@H]2C[C@H](O)[C@@H](CO)O2)c(=O)[nH]c1=O [5-methoxy-21-deoxyuridine]

IC50 (HT-29 cells; Homo sapiens, 144 h): 325 µM
Compound: CCCOc1cn([C@H]2C[C@H](O)[C@@H](CO)O2)c(=O)[nH]c1=O [5-propyloxy-2'-deoxyuridine]
